Source: patent US4216324A, “1-Difluoromethyl-6,7-methylenedioxy-1,4-dihyd ro-4-oxo-3-quinolinecarboxylic acid” (E. I. Du Pont de Nemours and Company, priority 1978, dated 1980)
≈ marks a conversion by molar mass, not a printed value. Like-named read-outs stand apart in the source and are kept apart here.

Key:
[1] = General pharmacology screen in rats; details: rat, in vivo, po; for TD50: doses given in mg./kg
Sal. typhimurium = assay: In vitro minimum inhibitory concentration (MIC), tube dilution test; assay type: cell-based; details: Salmonella enterica, 20 h, brain-heart infusion broth, 20hour incubation at 37° C., read-out: Minimal Inhibitory Test Conens. (MIC)
Procedure: (§1) A. In vitro: mimimum inhibitory concentration (MIC)
(§2) The compound was tested in a standard bacteriological tube dilution test for MIC for a variety of bacteria. Stock cultures of the bacteria listed in Table 1 were grown in bacterial culture media at 37° C. overnight and diluted in culture tubes to a previously determined concentration proper for the test. The compound was added to result in final concentrations of 10, 2, 0.4 and 0.08 μg/ml. These were incubated for 18 hours at 37° C. and then observed to determine if growth of bacteria had occurred. The lowest concentration of the compound that inhibited bacterial growth in the MIC.
(§3) *brain-heart infusion broth, 20hour incubation at 37° C.

E. coli = assay: as above; assay type: cell-based; details: Escherichia coli, 20 h, brain-heart infusion broth, 20hour incubation at 37° C., read-out: Minimal Inhibitory Test Conens. (MIC)
Procedure: as §1, §2, §3

Ser. marcescens = assay: as above; assay type: cell-based; details: Serratia marcescens; Ser. marcescens (22); brain-heart infusion broth, 20hour incubation at 37° C.; read-out: Minimal Inhibitory Test Conens. (MIC)
Procedure: as §1, §2, §3

Shiq. dysenteriae = assay: as above; assay type: cell-based; details: 20 h, read-out: Minimal Inhibitory Test Conens. (MIC)
Procedure: as §1, §2, §3

Proteus vulgaris = assay: as above; assay type: cell-based; details: Proteus vulgaris (14P); brain-heart infusion broth, 20hour incubation at 37° C.; read-out: Minimal Inhibitory Test Conens. (MIC)
Procedure: as §1, §2, §3

Bac. subtilis = assay: as above; assay type: cell-based; details: Bacillus subtilis; Bac. subtilis (07A); brain-heart infusion broth, 20hour incubation at 37° C.; read-out: Minimal Inhibitory Test Conens. (MIC)
Procedure: as §1, §2, §3

Sal. choleraesuis = assay: as above; assay type: cell-based; details: Salmonella enterica, 20 h, read-out: Minimal Inhibitory Test Conens. (MIC)
Procedure: as §1, §2, §3

Strep. pyogenes = assay: as above; assay type: cell-based; details: Streptococcus pyogenes; Strep. pyogenes (10V); brain-heart infusion broth, 20hour incubation at 37° C.; read-out: Minimal Inhibitory Test Conens. (MIC)
Procedure: as §1, §2, §3

Aero. cloacae = assay: as above; assay type: cell-based; details: Enterobacter cloacae; Aero. cloacae (39A); brain-heart infusion broth, 20hour incubation at 37° C.; read-out: Minimal Inhibitory Test Conens. (MIC)
Procedure: as §1, §2, §3

Proteus sp. = assay: as above; assay type: cell-based; details: brain-heart infusion broth, 20hour incubation at 37° C., read-out: Minimal Inhibitory Test Conens. (MIC)
Procedure: as §1, §2, §3

Sal. typhi = assay: as above; assay type: cell-based; details: Salmonella enterica, TYPHI, 20 h, brain-heart infusion broth, 20hour incubation at 37° C.
Procedure: as §1, §2, §3

Kleb. aerobacter = assay: as above; assay type: cell-based; details: Kleb. aerobacter (20F); brain-heart infusion broth, 20hour incubation at 37° C.; read-out: Minimal Inhibitory Test Conens. (MIC)
Procedure: as §1, §2, §3

Sal. gallinarum = assay: as above; assay type: cell-based; details: Salmonella enterica, 20 h, brain-heart infusion broth, 20hour incubation at 37° C., read-out: Minimal Inhibitory Test Conens. (MIC)
Procedure: as §1, §2, §3

Staph. aureus = assay: as above; assay type: cell-based; details: Staphylococcus aureus; Staph. aureus (08F); brain-heart infusion broth, 20hour incubation at 37° C.; read-out: Minimal Inhibitory Test Conens. (MIC)
Procedure: as §1, §2, §3

Pseud. aeruginosa = assay: as above; assay type: cell-based; details: Pseudomonas aeruginosa, 20 h, brain-heart infusion broth, 20hour incubation at 37° C., read-out: Minimal Inhibitory Test Conens. (MIC)

SMILES: O=C(O)c1cn(C(F)F)c2cc3c(cc2c1=O)OCO3 [DFMQ, 1-difluoromethyl-6,7-methylenedioxy-1,4-dihydro-4-oxo-3-quinolinecarboxylic acid]
- LD50 at 24 h [1]: > 324 mg/kg
- TD50 ([1]; read-out: ED50 Ataxia): > 324 mg/kg
- TD50 ([1]; read-out: ED50 Excitation): > 324 mg/kg
- TD50 ([1]; read-out: ED50 Irritability): > 324 mg/kg
- TD50 ([1]; rectal temperature, read-out: ED50 Hypertherm.): > 324 mg/kg
- TD50 ([1]; rectal temperature, read-out: ED50 Hypotherm.): > 324 mg/kg
- TD50 ([1]; vertical bar loss, read-out: ED50 Vert. Bar): > 324 mg/kg
- MIC (Sal. typhimurium; Sal. typhimurium (03A)): 0.4 µg/mL (≈ 1.41 µM)
- MIC (Sal. typhimurium; Sal. typhimurium (03C)): 0.4 µg/mL (≈ 1.41 µM)
- MIC (Sal. typhimurium; Sal. typhimurium (03K)): < 0.08 µg/mL
- MIC (E. coli; E. coli (06-2B)): 2 µg/mL (≈ 7.06 µM)
- MIC (E. coli; E. coli (06-2F)): 0.4 µg/mL (≈ 1.41 µM)
- MIC (E. coli; E. coli (06-2L)): 10 µg/mL (≈ 35.3 µM)
- MIC (E. coli; E. coli (06-2M)): < 0.08 µg/mL
- MIC (E. coli; E. coli (06C)): 2 µg/mL (≈ 7.06 µM)
- MIC (E. coli; E. coli (06I)): 10 µg/mL (≈ 35.3 µM)
- MIC (E. coli; E. coli (06J)): 0.4 µg/mL (≈ 1.41 µM)
- MIC (E. coli; E. coli (06K)): 0.4 µg/mL (≈ 1.41 µM)
- MIC (E. coli; E. coli (06L)): 0.4 µg/mL (≈ 1.41 µM)
- MIC (E. coli; E. coli (06M)): 0.4 µg/mL (≈ 1.41 µM)
- MIC (E. coli; E. coli (06S)): 0.4 µg/mL (≈ 1.41 µM)
- MIC (E. coli; E. coli (06V)): 0.4 µg/mL (≈ 1.41 µM)
- MIC (E. coli; E. coli (06X)): 2 µg/mL (≈ 7.06 µM)
- MIC (E. coli; E.coli (06-2D)): 2 µg/mL (≈ 7.06 µM)
- MIC (Ser. marcescens): 0.4 µg/mL (≈ 1.41 µM)
- MIC (Shiq. dysenteriae): 0.4 µg/mL (≈ 1.41 µM)
- MIC (Proteus vulgaris): 2 µg/mL (≈ 7.06 µM)
- MIC (Bac. subtilis): < 0.08 µg/mL
- MIC (Sal. choleraesuis): < 0.08 µg/mL
- MIC (Strep. pyogenes): < 0.08 µg/mL
- MIC (Aero. cloacae): < 0.08 µg/mL
- MIC (Proteus sp.): < 0.08 µg/mL
- MIC (Sal. typhi; read-out: Minimal Inhibitory Test Conens. (MIC), Sal. typhi (02A)): 2 µg/mL (≈ 7.06 µM)
- MIC (Sal. typhi; read-out: Minimal Inhibitory Test Conens. (MIC), Sal. typhi (02B)): 0.4 µg/mL (≈ 1.41 µM)
- MIC (Kleb. aerobacter): 2 µg/mL (≈ 7.06 µM)
- MIC (Sal. gallinarum; Sal. gallinarum (04C)): 2 µg/mL (≈ 7.06 µM)
- MIC (Sal. gallinarum; Sal. gallinarum (04D)): 0.4 µg/mL (≈ 1.41 µM)
- MIC (Staph. aureus): 0.4 µg/mL (≈ 1.41 µM)
- MIC (Pseud. aeruginosa; Pseud. aeruginosa (11B)): 10 µg/mL (≈ 35.3 µM)
- MIC (Pseud. aeruginosa; Pseud. aeruginosa (11C)): 2 µg/mL (≈ 7.06 µM)
- MIC (Pseud. aeruginosa; Pseud. aeruginosa (11D)): 10 µg/mL (≈ 35.3 µM)
- MIC (Pseud. aeruginosa; Pseud. aeruginosa (11G)): 10 µg/mL (≈ 35.3 µM)
- MIC (Pseud. aeruginosa; Pseud. aeruginosa (11I)): 2 µg/mL (≈ 7.06 µM)
- MIC (Pseud. aeruginosa; Pseud. aeruginosa (11J)): 10 µg/mL (≈ 35.3 µM)
